The structures appear in SMILES notation.

The nature of the data set: gradient 5% acetonitrile 3 min, to 50% in 2 min, to 85% in 15 min, held 3 min, 100 µL/min. To be noted: column: Zorbax Extend-C18 2.1 x 50 mm; eluents: water / acetonitrile, 0.1% formic acid. In short, it runs like this:
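A Zorbax Extend-C18 column (2.1 × 50 mm, 1.8 μm) run at 100 μL/min with water and acetonitrile, both containing 0.1% formic acid, separated mixtures of ~100 pure standards. The HPLC was coupled to a quadrupole time-of-flight mass spectrometer operated in positive and negative ionization mode, with dead and dwell volumes of 40 μL and 900 μL. Each retention time was taken from a computationally picked adduct peak that was then manually inspected.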
Compound `O=C(c1sc2ncccc2c1-n1cccc1)N1CCSCC1` showed an RP-LC retention time of 842 s. As to `O=C1Nc2cc(C(=O)N3CCN(Cc4ccccc4)CC3)ccc2N2CCCCC12` (centres undefined), the RP-LC retention time turned out to be 612 s.

The compound `Cc1ccccc1-c1cn2ccn(-c3ccc(Cl)cc3)c(=O)c2n1` displayed an RP-LC retention time of 883 s.

For `CCOC(=O)CNC(=O)N1CCN(Cc2nc3cccnc3n2-c2ccc(F)cc2)CC1`, the RP-LC retention time is 602 s. The same measure for `Cc1cccc(NC(=O)Cn2nc(N3CCCC3)c3ccccc3c2=O)c1C`: 927 s; for `N#Cc1cccc(-c2cn3c(n2)N(C(=O)Cc2ccsc2)CCC3)c1`: 822 s.

In turn, `O=C(c1ccc(C(F)(F)F)cc1)N1CCc2nc(-c3ccc(Cl)cc3)ncc2C1` came in with an RP-LC retention time of 1170 s. The same measure for `COC(=O)c1cc(OCC(=O)Nc2cccc(OC)c2)c2cc(OC)ccc2n1`: 811 s. The same measure for `O=C(NCc1cccc2ccccc12)C(=O)c1c[nH]c2ccccc12`: 1010 s; for `c1ccc(CN2CCN(c3ncccc3-c3nc(-c4ccccc4)no3)CC2)cc1`: 769 s; for `O=C(C1CCCN(c2ncnc3c2nc2n3CCCCC2)C1)N1CCN(Cc2ccccc2)CC1` (centres undefined): 615 s. Consider `CC(C)n1cc(C2=CCN(S(=O)(=O)Cc3ccc(Cl)cc3)CC2)c2cccnc21`, for which the RP-LC retention time came out at 1130 s.

`O=C(NC(Cc1ccccc1)c1nnc(N2CCCCC2)o1)c1ccco1` (centres undefined) returned an RP-LC retention time of 775 s. The same measure for `Cc1cnc(C(=O)N2CCC(c3noc(-c4cnccn4)n3)C2)cn1` (centres undefined): 630 s. In the case of `O=C(c1csc(S(=O)(=O)N2CCC(C(=O)N3CCOCC3)CC2)c1)N1CCCCCC1`, the RP-LC retention time was determined as 718 s. On to `Cc1ccc(C(=O)N2CCC3(C2)C(=O)N(C)c2ccccc23)cc1` (centres undefined), for which the RP-LC retention time was determined as 792 s. The same measure for `COCC(O)Cn1ccnc1[N+](=O)[O-]` (centres undefined): 609 s; for `O=C(c1ccccc1)N1C[C@H]2CNC(=O)[C@]23CCCC[C@@H]13`: 662 s. In the case of `CCc1cc(N2CCN(C(=O)c3cccc(C#N)c3)CC2)nc2nncn12`, the RP-LC retention time came to 589 s.

For the compound `COc1ccc(C2CC(=O)N(c3ccc(F)c(Cl)c3)C(=O)C2)cc1OC`, the RP-LC retention time stood at 915 s. For `Cc1ccc(Cn2c(=O)c(N3CCC(NC(=O)NC(C)C)CC3)nc3cccnc32)cc1`, the RP-LC retention time amounted to 986 s.

`Cc1c(S(=O)(=O)CCNC(=O)Nc2ccc3c(c2)OCO3)c2ccccc2n1C`: the RP-LC retention time is 729 s. The result for `O=C(N[C@@H](Cc1c[nH]c2ccccc12)C(=O)O)c1cc2ccccc2o1` reads 769 s; that for `CC(C)n1c(=O)c(NCc2ccc(N3CCOCC3)cc2)nc2ccncc21`, 606 s.

As to `O=C(Cc1cccs1)N1CCCC1c1nc(-c2ccc(F)cc2F)no1` (centres undefined), the RP-LC retention time amounted to 935 s. As to `CCOC(=O)c1ccc(NC(=O)C2CCCN(S(=O)(=O)c3cc(OC)ccc3OC)C2)cc1` (centres undefined), the RP-LC retention time came to 975 s. In the case of `Cc1ccc(NC(=O)c2cc(C(C)(C)C)n3nccc3n2)cc1`, the RP-LC retention time was 1320 s. `O=C(Nc1ccc(O)c(C(=O)O)c1)Oc1ccccc1` returned an RP-LC retention time of 801 s. In turn, `O=C(Nc1cnc(N2CCOCC2)nc1)c1cc(F)ccc1Cl` had an RP-LC retention time of 746 s.

As to `O=C(C1CC(=O)N(c2n[nH]c3ccccc23)C1)N1CCN(c2ccc(Cl)cc2)CC1` (centres undefined), the RP-LC retention time turned out to be 799 s. As to `Cc1ccc(-c2ccc(N3CCCC(C(=O)N4CCC(C(N)=O)CC4)C3)nn2)cc1C` (centres undefined), the RP-LC retention time is 622 s. The same measure for `CCOC(=O)Cc1csc(NS(=O)(=O)c2cn(C)nc2C)n1`: 592 s; for `O=C1CC(C(=O)N2CCc3ccccc32)CN1CCc1c[nH]c2ccc(Cl)cc12` (centres undefined): 880 s; for `COc1cc(NC(=O)CN2C(=O)COc3ccc(C(=O)N4CCCC4)cc32)cc(OC)c1`: 718 s. `Cc1ccc(CC(=O)Nc2c(C(=O)N3CCN(c4ccccn4)CC3)oc3ccccc23)cc1` had an RP-LC retention time of 716 s. The same measure for `Oc1ccc2c3c1O[C@H]1c4[nH]c5ccccc5c4C[C@@]4(O)C(C2)N(CC2CC2)CC[C@]314`: 717 s; for `Cc1cc(NC(=O)CCCSc2ccc(F)cc2)no1`: 838 s; for `Cc1ccc(C)c(NC(=O)c2csc(-c3cn(C)c4ncccc34)n2)c1`: 1110 s. The same measure for `O=C(c1cc2ccccc2o1)N1CCN(Cc2ccsc2)CC1`: 578 s; for `Cc1nn(CC(=O)N2CCCC2)c(=O)c2c(-n3cccc3)n(-c3cccc(F)c3)nc12`: 876 s. The same measure for `COc1ccc(OC)c(NC(=O)C2CC(=O)N(CCc3c[nH]c4ccc(Cl)cc34)C2)c1` (centres undefined): 849 s; for `CCn1ccc(C(=O)Nc2ccc(OCc3nnc(-c4ccc(Cl)cc4)o3)cc2)n1`: 1010 s. `CC(C)NC(=O)CN1CCN(C(=O)Nc2ccc(Cl)cc2)CC1=O` yielded an RP-LC retention time of 669 s. Consider `Cc1ccc(N2CCN(C(=O)C3CCCN(c4ncnc5c4nc4n5CCCCC4)C3)CC2)c(C)c1` (centres undefined), for which the RP-LC retention time is 1050 s.

`O=C(NC1CC1)[C@@H]1C[C@H](Oc2cccnc2)CN1C(=O)c1ccc2ncccc2c1` came in with an RP-LC retention time of 528 s. Compound `CCOc1ccccc1NC(=O)NCCc1nc2cccnc2n1C1CCCC1` registered an RP-LC retention time of 782 s. The same measure for `CC(C)(C)OC(=O)Nc1cnc(C(=O)O)cn1`: 625 s; for `Cc1ccccc1Nc1c(-c2ccccc2)nc2cnccn12`: 906 s; for `O=C(Cn1nc(C(=O)N2CCOCC2)cc1C1CC1)NCCCN1CCCC1=O`: 566 s. Compound `O=C(C1CCCN(c2nnc(N3CCCC3=O)s2)C1)N1CCN(c2ccccn2)CC1` (centres undefined) registered an RP-LC retention time of 582 s.

Turning to `CSc1nc(N2CCCC2)c2cnn(CCNC(=O)c3cc(-c4ccco4)on3)c2n1`, the RP-LC retention time was 849 s. The result for `O=C(c1cnccn1)N1CCCCC1c1nc(-c2ccncc2)no1` (centres undefined) reads 661 s; that for `CCS(=O)(=O)N1CCCc2cc(C(=O)NCCOC)ccc21`, 682 s; that for `COc1ccc(NC(=O)C2CC(=O)N(c3ccc4oc(C)nc4c3)C2)cc1` (centres undefined), 706 s. The same measure for `COc1ccc(NC(=O)C2CCN(c3nnc4ccccn34)CC2)cc1C(F)(F)F`: 704 s; for `CCOC(=O)c1c(S(=O)(=O)N2CCC(C(=O)Nc3ccc(C)c(C)c3)CC2)c(C)n(C)c1C`: 841 s. The result for `O=C(CCC1NC(=O)c2ccccc2NC1=O)NCc1nc(-c2ccccc2)no1` (centres undefined) reads 624 s; that for `CCCN1C(=O)CCc2cc(NC(=O)COc3ccc(F)cc3)ccc21`, 888 s. Regarding `COc1ccc(-c2nc(-c3cccc(-c4ccn[nH]4)c3)no2)c(OC)c1`, the RP-LC retention time came out at 936 s. Consider `Cc1ccc(CNC(=O)C2(C)Cn3nc(C(=O)NCc4ccccc4C)cc3C(=O)N2C)cc1` (centres undefined), for which the RP-LC retention time turned out to be 823 s. `COc1ccc(OCC(=O)N2CCN(c3cc(C)n4cnnc4n3)CC2)cc1` registered an RP-LC retention time of 593 s. The same measure for `O=C(CCn1nnc2cc(-c3noc(-c4cccc(Br)c4)n3)ccc21)N1CCOCC1`: 980 s. `Cc1ccc(-c2csc(NC(=O)C3CCC3)n2)cc1C` returned an RP-LC retention time of 1100 s. Take `Cc1nc(NC(=O)CNC(=O)c2c[nH]c3ccccc23)sc1C(=O)N(C)C`: the RP-LC retention time is 614 s. The result for `CCOC(=O)c1ccc(NC(=O)C2CCCN(c3ncnc4c3nc3n4CCCCC3)C2)cc1` (centres undefined) reads 873 s; that for `Cc1cnc(C(=O)N2CCOCCNC(=O)[C@@H]3CCC[C@@H]32)cn1`, 599 s; that for `CCCOc1nccnc1NC1CCN(C(=O)c2ccco2)CC1`, 748 s.

`CC1CCCC(C)N1CCCNC(=O)c1cc2sccc2n1Cc1ccc(Cl)cc1` (centres undefined) had an RP-LC retention time of 783 s. Consider `Cc1nc2cccnc2n1C1CCN(C(=O)Nc2ccccc2F)CC1`, for which the RP-LC retention time amounted to 605 s.

As to `CCOc1cc2c(cc1OCC)C(c1ccc(OC)c(OC)c1OC)CC(=O)N2` (centres undefined), the RP-LC retention time came to 836 s.

The compound `O=C(NCc1ccc2c(c1)OCO2)C1CCN(c2cnc(N3CCSCC3)nc2)CC1` yielded an RP-LC retention time of 763 s. The result for `Cc1cc2c(=O)n(CC(=O)Nc3ccc(F)cc3Cl)ccc2s1` reads 812 s; that for `O=C1COc2ccc(-c3csc(NC(=O)C4CCCO4)n3)cc2N1` (centres undefined), 715 s; that for `COc1ncccc1CNC(=O)c1cc(Cl)ccc1F`, 1180 s. The same measure for `Cc1c(S(=O)(=O)N2CCCC(C)C2)c(C)n(C)c1C(=O)N1CCc2ccccc21` (centres undefined): 1070 s; for `CN1C(=O)COc2ccc(-c3csc(NC(=O)C4CCCCC4)n3)cc21`: 988 s; for `CCN1CCN(CCNC(=O)C2CCCN(c3ncc(-c4cccc(F)c4)cn3)C2)CC1` (centres undefined): 632 s. The same measure for `COc1ccc(-c2nnc(N3CCC(C(=O)NCc4cccs4)CC3)o2)cc1`: 767 s. `CCC(C)NC(=O)C1CCCN1S(=O)(=O)c1cc2c(cc1C)NC(=O)CO2` (centres undefined) came in with an RP-LC retention time of 710 s.

These data come from the METLIN SMRT retention time set (Domingo-Almenara et al. 2019).
